The text below walks through data of ChEMBL document CHEMBL1221361, “Substituted biaryl oxazoles, imidazoles, and thiazoles as sodium channel blockers” (Bioorg Med Chem Lett, 2010).

Data set [1] has as its target T1, Sodium channel protein type 9 subunit alpha (Homo sapiens, UniProt Q15858). Kind of data set: Blockade of human Nav1.7 at 1 uM by voltage ion probe reader based FRET assay.
Target sequence in this assay (Q15858 whole entry, looked up): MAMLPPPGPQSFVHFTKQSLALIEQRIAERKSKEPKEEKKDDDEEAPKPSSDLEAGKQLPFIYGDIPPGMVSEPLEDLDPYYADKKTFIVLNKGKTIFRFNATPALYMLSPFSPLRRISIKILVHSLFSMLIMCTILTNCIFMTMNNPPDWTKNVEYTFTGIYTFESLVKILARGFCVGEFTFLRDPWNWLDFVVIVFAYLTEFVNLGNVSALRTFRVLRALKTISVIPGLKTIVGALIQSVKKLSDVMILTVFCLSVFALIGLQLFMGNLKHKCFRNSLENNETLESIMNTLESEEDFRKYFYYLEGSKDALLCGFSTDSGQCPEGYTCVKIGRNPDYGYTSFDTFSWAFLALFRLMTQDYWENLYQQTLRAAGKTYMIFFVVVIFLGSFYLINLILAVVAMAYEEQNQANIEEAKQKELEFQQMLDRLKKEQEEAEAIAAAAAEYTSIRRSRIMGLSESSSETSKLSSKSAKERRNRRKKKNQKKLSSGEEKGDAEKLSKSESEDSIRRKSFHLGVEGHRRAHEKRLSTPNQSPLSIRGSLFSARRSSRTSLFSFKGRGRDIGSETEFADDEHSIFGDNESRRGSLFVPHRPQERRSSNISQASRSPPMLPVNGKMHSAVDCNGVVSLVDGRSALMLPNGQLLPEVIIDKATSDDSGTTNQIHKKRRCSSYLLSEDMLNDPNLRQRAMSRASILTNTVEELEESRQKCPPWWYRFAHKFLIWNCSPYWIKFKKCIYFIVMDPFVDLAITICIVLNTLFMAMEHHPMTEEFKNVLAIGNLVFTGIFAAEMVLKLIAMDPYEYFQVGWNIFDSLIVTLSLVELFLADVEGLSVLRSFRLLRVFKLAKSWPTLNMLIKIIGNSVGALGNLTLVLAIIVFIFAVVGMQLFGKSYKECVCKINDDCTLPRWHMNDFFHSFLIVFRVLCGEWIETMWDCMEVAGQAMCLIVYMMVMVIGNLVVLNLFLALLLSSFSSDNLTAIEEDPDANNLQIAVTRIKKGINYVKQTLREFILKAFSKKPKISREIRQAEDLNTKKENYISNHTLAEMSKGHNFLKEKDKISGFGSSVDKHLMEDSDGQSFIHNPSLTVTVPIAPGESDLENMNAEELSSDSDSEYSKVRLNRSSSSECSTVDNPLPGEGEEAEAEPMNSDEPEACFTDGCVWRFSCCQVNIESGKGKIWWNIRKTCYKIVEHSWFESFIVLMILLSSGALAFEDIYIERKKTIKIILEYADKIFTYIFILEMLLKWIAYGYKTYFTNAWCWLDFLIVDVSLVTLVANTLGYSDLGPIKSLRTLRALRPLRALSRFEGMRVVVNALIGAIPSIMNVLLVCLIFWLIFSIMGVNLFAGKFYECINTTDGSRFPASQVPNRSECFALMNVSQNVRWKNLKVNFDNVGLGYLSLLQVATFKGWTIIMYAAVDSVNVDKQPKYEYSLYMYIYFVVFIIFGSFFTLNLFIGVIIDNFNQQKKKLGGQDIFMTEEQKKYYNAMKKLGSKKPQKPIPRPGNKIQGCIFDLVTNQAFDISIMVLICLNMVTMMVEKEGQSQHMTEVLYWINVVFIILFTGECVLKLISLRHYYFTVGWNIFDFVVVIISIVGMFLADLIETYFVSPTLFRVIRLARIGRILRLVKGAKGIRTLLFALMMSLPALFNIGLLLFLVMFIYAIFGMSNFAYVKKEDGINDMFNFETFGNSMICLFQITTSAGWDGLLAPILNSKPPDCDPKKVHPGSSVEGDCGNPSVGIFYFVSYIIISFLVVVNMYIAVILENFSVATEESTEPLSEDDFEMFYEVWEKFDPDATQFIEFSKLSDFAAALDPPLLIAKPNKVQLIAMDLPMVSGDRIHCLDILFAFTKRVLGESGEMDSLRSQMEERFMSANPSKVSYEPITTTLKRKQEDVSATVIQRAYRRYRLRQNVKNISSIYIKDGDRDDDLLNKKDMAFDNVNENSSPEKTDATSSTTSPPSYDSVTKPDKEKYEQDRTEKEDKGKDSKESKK
Data set [2] addresses T1, Sodium channel protein type 9 subunit alpha. Put plainly: Blockade of human Nav1.7 by voltage ion probe reader based FRET assay.
Target sequence in this assay (Q15858 whole entry): as the sequence (Q15858 whole entry, looked up) above
Data set [3] has the same target. Put plainly: Binding affinity to human Nav1.7.
Target sequence in this assay (Q15858 whole entry): as the sequence (Q15858 whole entry, looked up) above
Data set [4] shares this target. Kind of data set: Blockade of human Nav1.7 by electrophysiology assay.
Target sequence in this assay (Q15858 whole entry): as the sequence (Q15858 whole entry, looked up) above
Another data set has as its target hERG (KCNH2) (Homo sapiens, UniProt Q12809). Put plainly: Displacement of radiolabeled MK-0499 from human ERG at 1 uM. Conditions: probe radiolabeled MK-0499.
The target in another data set is Cytochrome P450 3A4 (Homo sapiens, UniProt P08684). Put plainly: Inhibition of CYP3A4. The class given is ADME.
Chain of Cytochrome P450 3A4 (P08684 whole entry): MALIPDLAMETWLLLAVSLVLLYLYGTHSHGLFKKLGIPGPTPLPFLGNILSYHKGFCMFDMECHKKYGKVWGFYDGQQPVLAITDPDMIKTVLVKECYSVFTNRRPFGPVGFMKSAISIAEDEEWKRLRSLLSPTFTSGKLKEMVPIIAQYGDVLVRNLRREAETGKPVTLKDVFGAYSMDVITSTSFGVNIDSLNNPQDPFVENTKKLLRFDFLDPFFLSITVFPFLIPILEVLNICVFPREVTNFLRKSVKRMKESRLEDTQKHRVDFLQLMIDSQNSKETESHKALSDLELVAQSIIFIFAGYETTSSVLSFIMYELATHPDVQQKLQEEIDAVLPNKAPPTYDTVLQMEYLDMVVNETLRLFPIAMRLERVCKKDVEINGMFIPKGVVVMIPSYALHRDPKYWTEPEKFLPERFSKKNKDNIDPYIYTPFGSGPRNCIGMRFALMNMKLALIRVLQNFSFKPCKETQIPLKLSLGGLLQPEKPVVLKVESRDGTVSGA
The target in another data set is Cytochrome P450 2C9 (Homo sapiens, UniProt P11712). Put plainly: Inhibition of CYP2C9. The class given is ADME.
Chain of Cytochrome P450 2C9 (P11712 whole entry): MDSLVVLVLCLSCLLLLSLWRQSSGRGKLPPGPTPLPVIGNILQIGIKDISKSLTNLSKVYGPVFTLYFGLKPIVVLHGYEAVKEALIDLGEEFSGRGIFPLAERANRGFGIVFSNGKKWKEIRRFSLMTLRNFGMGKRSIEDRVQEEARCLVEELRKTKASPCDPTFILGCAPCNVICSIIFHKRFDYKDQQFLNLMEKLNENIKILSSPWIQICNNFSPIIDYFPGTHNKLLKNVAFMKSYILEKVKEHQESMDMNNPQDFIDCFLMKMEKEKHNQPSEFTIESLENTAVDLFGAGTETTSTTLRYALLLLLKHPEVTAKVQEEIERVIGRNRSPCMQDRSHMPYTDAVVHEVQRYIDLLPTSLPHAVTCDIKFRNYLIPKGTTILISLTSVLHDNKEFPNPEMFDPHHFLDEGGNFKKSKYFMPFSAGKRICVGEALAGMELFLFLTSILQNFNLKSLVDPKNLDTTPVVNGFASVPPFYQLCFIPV
The target of a further data set is Cytochrome P450 2D6 (Homo sapiens, UniProt P10635). Put plainly: Inhibition of CYP2D6. The class given is ADME.
Chain of Cytochrome P450 2D6 (P10635 whole entry): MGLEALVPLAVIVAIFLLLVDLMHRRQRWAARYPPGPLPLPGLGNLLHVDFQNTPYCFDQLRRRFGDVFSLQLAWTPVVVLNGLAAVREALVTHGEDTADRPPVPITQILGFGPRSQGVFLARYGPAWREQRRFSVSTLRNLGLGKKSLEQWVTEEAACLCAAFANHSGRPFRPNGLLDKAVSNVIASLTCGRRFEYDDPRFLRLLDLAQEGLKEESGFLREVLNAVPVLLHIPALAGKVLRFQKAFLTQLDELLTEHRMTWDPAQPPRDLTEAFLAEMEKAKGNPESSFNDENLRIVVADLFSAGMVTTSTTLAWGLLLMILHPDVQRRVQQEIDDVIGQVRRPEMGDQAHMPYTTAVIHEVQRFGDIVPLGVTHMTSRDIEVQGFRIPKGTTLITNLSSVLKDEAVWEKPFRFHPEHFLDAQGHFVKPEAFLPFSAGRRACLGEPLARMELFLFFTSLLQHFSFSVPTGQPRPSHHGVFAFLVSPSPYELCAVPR
Data set [5] is described as follows: Oral bioavailability in rat at 1 to 2 mg/kg. Format: ADME, organism-based. The following applies: in vivo.
Data set [6] in a line: Clearance in rat plasma at 1 to 2 mg/kg. The class given is ADME, organism-based. Further details: dose 1-2 mg/kg.
A short description of data set [7]: Half life in rat plasma at 1 to 2 mg/kg. Format: ADME, organism-based. Further details: dose 1-2 mg/kg.
Another data set has as its system Rattus norvegicus. Kind of data set: Analgesic activity rat spinal nerve ligation Chung model assessed as reversal of mechanical allodynia at 10 mg/kg, po administered 14 days after surgery measured 2 hrs after postdose. Format: functional.
Data set [8] in a line: Metabolic stability in rat liver S9 microsomes assessed as compound remaining after 1 hr. The class given is ADME, Microsome. Conditions: read-out: INH.
The nature of data set [9]: Metabolic stability in dog liver S9 microsomes assessed as compound remaining after 1 hr. The class given is ADME, Canis lupus familiaris, Microsome. The following applies: read-out: INH.
Data set [10] in a line: Metabolic stability in human liver S9 microsomes assessed as compound remaining after 1 hr. Format: ADME, Microsome. The following applies: read-out: INH.
The nature of data set [11]: Metabolic stability in dog hepatocytes assessed as compound remaining after 2 hrs. Format: ADME, cell-based, Canis lupus familiaris, Hepatocyte. Conditions: read-out: INH.
The nature of data set [12]: Oral bioavailability in rat at 1 to 3 mg/kg. The class given is ADME, organism-based. The following applies: in vivo.
Data set [13] is described as follows: Clearance in rat plasma at 1 to 3 mg/kg. Format: ADME, organism-based. Set-up: dose 1-3 mg/kg.
The nature of data set [14]: Half life in rat plasma at 1 to 3 mg/kg. The class given is ADME, organism-based. Further details: dose 1-3 mg/kg.

Values joined by “and” are separate entries in the source; they are usually repeats but may differ in a detail not shown here. Identical values can stand only once.

Chain of hERG (KCNH2) (Q12809 whole entry): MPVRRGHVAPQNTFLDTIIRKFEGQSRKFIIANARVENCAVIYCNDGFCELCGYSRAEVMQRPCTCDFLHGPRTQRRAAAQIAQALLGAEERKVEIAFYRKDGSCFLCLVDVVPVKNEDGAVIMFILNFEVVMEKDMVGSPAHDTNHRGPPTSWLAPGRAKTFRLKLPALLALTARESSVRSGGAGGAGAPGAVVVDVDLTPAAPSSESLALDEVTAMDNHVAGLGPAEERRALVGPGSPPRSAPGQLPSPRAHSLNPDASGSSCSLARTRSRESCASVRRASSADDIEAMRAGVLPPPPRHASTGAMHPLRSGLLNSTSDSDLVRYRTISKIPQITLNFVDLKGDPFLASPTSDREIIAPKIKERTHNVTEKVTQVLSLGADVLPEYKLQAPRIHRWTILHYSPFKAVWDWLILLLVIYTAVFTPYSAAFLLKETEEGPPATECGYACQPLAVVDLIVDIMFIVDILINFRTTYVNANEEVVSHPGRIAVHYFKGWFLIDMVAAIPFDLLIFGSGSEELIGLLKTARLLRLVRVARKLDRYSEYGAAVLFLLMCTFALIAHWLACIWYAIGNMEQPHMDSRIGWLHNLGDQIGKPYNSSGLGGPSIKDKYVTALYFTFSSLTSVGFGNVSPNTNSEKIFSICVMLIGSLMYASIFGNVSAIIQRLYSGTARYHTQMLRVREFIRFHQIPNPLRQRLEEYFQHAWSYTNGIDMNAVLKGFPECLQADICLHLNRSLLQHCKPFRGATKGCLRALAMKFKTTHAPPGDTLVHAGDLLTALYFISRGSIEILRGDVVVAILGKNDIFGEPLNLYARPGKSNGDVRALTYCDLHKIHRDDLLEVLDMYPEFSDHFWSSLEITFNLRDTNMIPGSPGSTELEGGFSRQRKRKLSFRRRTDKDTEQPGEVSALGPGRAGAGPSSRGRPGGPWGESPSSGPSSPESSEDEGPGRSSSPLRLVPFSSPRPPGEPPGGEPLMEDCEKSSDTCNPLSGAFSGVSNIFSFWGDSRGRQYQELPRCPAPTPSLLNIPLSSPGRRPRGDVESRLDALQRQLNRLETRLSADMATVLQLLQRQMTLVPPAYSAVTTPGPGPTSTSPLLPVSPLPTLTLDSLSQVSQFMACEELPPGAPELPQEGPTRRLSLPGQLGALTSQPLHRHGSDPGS

Turning to `N#CCc1nc(-c2cccc(-c3ccccc3OC(F)(F)F)c2)cs1`, the inhibition in data set [1] was 8%.
Consider `FC(F)(F)Oc1ccccc1-c1cccc(-c2csc(-c3cnccn3)n2)c1`, for which half-maximal inhibition in [2] (IC50) required 1.26 µM.
In data set [3], `NC(=O)N/N=C/c1ccc(Oc2ccc(F)cc2)cc1` came in with a Ki of 0.36 µM.
Regarding `CS(=O)(=O)Nc1nc(-c2cccc(-c3ccccc3OC(F)(F)F)c2)cs1`, the inhibition in [1] came to 65%.
The same measure, in the same setting: for `FC(F)(F)Oc1ccccc1-c1cccc(-c2csc(-c3ncco3)n2)c1` the value was 27%; for `CC(=O)Nc1nc(-c2cccc(-c3ccccc3OC(F)(F)F)c2)cs1`, 5%.
On to `O=C1NC(=O)/C(=C/c2cccc(-c3ccccc3OC(F)(F)F)c2)S1`, for which, in data set [3], the Ki was determined as 0.02 µM.
Turning to `Cn1cc(-c2cccc(-c3ccccc3C(F)(F)F)c2)nc1C(N)=O`, the midpoint of inhibition in data set [2], the IC50, lay at 1.25 µM.
As to `FC(F)(F)c1ccccc1-c1cccc(-c2c[nH]cn2)c1`, the IC50 in data set [2] is 2.1 µM; in data set [4], 0.15 µM; against Cytochrome P450 3A4, below 0.05 µM; against Cytochrome P450 2C9, below 0.05 µM; on Cytochrome P450 2D6, below 0.05 µM. This molecule yielded an inhibition at 1 µM at hERG (KCNH2) of 75%. Besides, in data set [5], the bioavailability came to 71%. Also, in data set [6], the clearance worked out at 32 mL/min/kg. Besides, in data set [7], the half-life was found to be 37.8 min.
The molecule `OCc1nc(-c2cccc(-c3ccccc3OC(F)(F)F)c2)cs1` showed an IC50 in data set [2] of 1.8 µM.
Consider `CN(C)C(=O)c1nc(-c2cccc(-c3ccccc3OC(F)(F)F)c2)cs1`, for which the IC50 in data set [2] amounted to 1.37 µM.
In [1], `FC(F)(F)Oc1ccccc1-c1cccc(-c2csc(-c3ncccn3)n2)c1` showed an inhibition of 6.3%.
`NC(=O)c1nc(-c2cccc(-c3ccccc3OC(F)(F)F)c2)co1` returned an IC50 in [2] of 2.36 µM.
On to `NC(=O)c1nc(-c2cccc(-c3ccccc3OC(F)(F)F)c2)cs1`, for which the inhibition in vivo at 10 mg/kg in the data set with Rattus norvegicus was found to be 61%. Further, the IC50 is 230 nM (2×) and 228 nM in data set [2]; 0.015 µM in [4]; 18 µM at Cytochrome P450 3A4; 16 µM against Cytochrome P450 2C9; 48 µM on Cytochrome P450 2D6. The inhibition at 1 µM on hERG (KCNH2) is 0.5%. In addition, the bioavailability in [5] was 20%. The molecule further displayed a clearance in data set [6] of 52 mL/min/kg. This molecule came in with a half-life in [7] of 79.8 min. Also, the remaining at 1 h was 68% in [8], 10% in data set [9] and 47% in [10]. In data set [11], the remaining at 2 h was below 5%.
The molecule `Cc1nc(-c2cccc(-c3ccccc3OC(F)(F)F)c2)co1` registered an IC50 in data set [2] of 2.14 µM.
`CN(C)C(=O)Nc1nc(-c2cccc(-c3ccccc3OC(F)(F)F)c2)cs1` showed an inhibition in [1] of 6.6%.
In data set [1], `Nc1nc(-c2cccc(-c3ccccc3OC(F)(F)F)c2)cs1` came in with an inhibition of 84%.
In data set [2], `Cn1cc(-c2ccc(F)c(-c3ccccc3OC(F)(F)F)c2)nc1C(N)=O` came in with an IC50 of 0.49 µM.
`CCOC(=O)c1nc(-c2cccc(-c3ccccc3OC(F)(F)F)c2)c(C)s1` returned an inhibition in data set [1] of 8%.
For the molecule `FC(F)(F)Oc1ccccc1-c1cccc(-c2csc(-c3ncc[nH]3)n2)c1`, inhibition in [2] was half-maximal at 0.95 µM (IC50).
In data set [2], `NC(=O)Cc1nc(-c2cccc(-c3ccccc3OC(F)(F)F)c2)cs1` returned a half-maximal inhibitory concentration (IC50) of 0.62 µM.
`NC(=O)c1nc(-c2cccc(-c3ccccc3C(F)(F)F)c2)c[nH]1`: in [1], the inhibition was 55%. Also, the half-maximal inhibitory concentration (IC50) is 0.27 µM in data set [4], above 40 µM against Cytochrome P450 3A4, above 40 µM against Cytochrome P450 2C9 and above 40 µM at Cytochrome P450 2D6. This molecule also had an inhibition at 1 µM on hERG (KCNH2) of 25%. The molecule further returned a bioavailability in data set [12] of 46%. In data set [13], the clearance came out at 23 mL/min/kg. The molecule further showed a half-life in [14] of 30 min.
Consider `Cc1sc(C(N)=O)nc1-c1cccc(-c2ccccc2OC(F)(F)F)c1`, for which, in data set [2], half-maximal inhibition (IC50) was put at 0.43 µM.
`FC(F)(F)Oc1ccccc1-c1cccc(-c2c[nH]cn2)c1`: in data set [1], the inhibition turned out to be 14%.
The molecule `FC(F)(F)Oc1ccccc1-c1cccc(-c2cocn2)c1` showed an IC50 in [2] of 1.94 µM.
As to `FC(F)(F)Oc1ccccc1-c1cccc(-c2csc(-c3ccccn3)n2)c1`, the inhibition in data set [1] came to 21%.
As to `NC(=O)c1csc(-c2cccc(-c3ccccc3OC(F)(F)F)c2)n1`, the IC50 is 0.26 µM in data set [2]; 0.05 µM in data set [4]; above 50 µM on Cytochrome P450 3A4; 8.79 µM against Cytochrome P450 2C9; above 50 µM on Cytochrome P450 2D6. For the same molecule, the inhibition at 1 µM at hERG (KCNH2) amounted to 55%. In data set [12], this molecule registered a bioavailability of 22%. For the same molecule, the clearance in data set [13] was determined as 112 mL/min/kg. Further, the half-life in data set [14] stood at 44.4 min.
Regarding `NC(=O)c1nc(-c2ccc(-c3ccccc3OC(F)(F)F)cc2)cs1`, the inhibition in data set [1] amounted to 6.1%.
Still for that read-out and setting: for `Cn1cc(-c2cc(-c3ccccc3OC(F)(F)F)ccc2F)nc1C(N)=O` the value was 15%.
On to `Cc1nc(-c2cccc(-c3ccccc3OC(F)(F)F)c2)cs1`, for which the IC50 in [2] was 2.99 µM.
In turn, `Nc1nc(-c2cccc(-c3ccccc3OC(F)(F)F)c2)co1` gave an inhibition in data set [1] of 37%.
As for `FC(F)(F)c1ccccc1-c1cccc(-c2cocn2)c1`, the IC50 in data set [2] was 5.31 µM.
The same measure, in the same setting: the value for `NC(=O)c1nc(-c2cccc(-c3ccccc3C(F)(F)F)c2)c(Cl)[nH]1` was 2.77 µM; that for `FC(F)(F)Oc1ccccc1-c1cccc(-c2cscn2)c1` was 2.16 µM.

Broadly, the inhibition is the change of the read-out against control, counted positive when it falls. Lower therefore signals a weak effect. As usually defined, the IC50 is the concentration that gives 50% inhibition. A high value points to a need for much substance. As usually defined, the Ki is a measure of affinity in units of concentration, obtained from inhibition or displacement. What is called bioavailability is dose-corrected exposure relative to a reference, in per cent. The term clearance denotes the rate of elimination divided by the concentration. Read a high clearance as efficient removal. The half-life is how long it takes for the measured level to halve. A low value points to fast loss. The term inhibition in vivo denotes how much of the control response was suppressed.
